Results from PubChem BioAssay AID1117296 (The Scripps Research Institute Molecular Screening Center, 2014).
Activity calls are given as the source filed them.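 The calls were made as follows: active = IC50 at or below 10 µM; inactive = IC50 above 10 µM.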

Test system: HuH7 TTR-promoter Gaussia luciferase reporter, luminescence
Assay: TTR transcription inhibitors in hepatoma cells, dose response, counter-screen for TTR transcription activator project, cell-based, luminescence, HuH7 hepatoma, IC50 (AID 1117296)

For `Cc1ccccc1Cn1cc(COC(=O)N(C)Cc2ccccc2)nn1`, the IC50 was 115 µM (inactive).

In the case of `O=c1cc(O)c2sc(Nc3ccc(Cl)c(F)c3)nc2[nH]1`, the IC50 is reported as > 167 µM (inactive).

For `CCCNC(=O)c1ccc(N2CCC3(CC2)CC(c2ccccc2)=NO3)c(NC(=O)c2ccco2)c1`, the IC50 was > 167 µM (inactive).

In the case of `O=C(O)c1ccc(CSc2nnc(Cc3ccccc3)o2)cc1`, the IC50 is reported as 27.3 µM (inactive).

In the case of `Cc1cccc(NC(c2ccc(O)cc2)c2ccc3ccc(C)nc3c2O)n1` (stereo not given), the IC50 is reported as 61.8 µM (inactive).

In the case of `N=c1ccn(CC(=O)NC(N)=O)c2ccccc12`, the IC50 is reported as > 167 µM (inactive).

In the case of `O=C/C(=C\Nc1ccccn1)c1nc2ccccc2o1`, the IC50 is reported as > 18.4 µM (inactive).

`Cc1c(Br)c(C(=O)N2CCc3ccccc32)nn1C` was tested, and the IC50 was > 167 µM (inactive).

In the case of `CC(=O)c1cc(C(C)=O)c(C)nc1C`, the IC50 is reported as > 167 µM (inactive).

In the case of `CN(C)CCNc1ccc(CO)c2oc3ccc(O)cc3c(=O)c12`, the IC50 is reported as > 55.2 µM (inactive).

`O=C(CCl)c1cc2c3c(c1)CC(=O)N3CCC2` was tested, and the IC50 was 19.8 µM (inactive).

For `C/C(=N\Nc1ncc(Br)cn1)c1cccc([N+](=O)[O-])c1`, the IC50 was > 167 µM (inactive).

For `c1ccc(Sc2ncnc3c2oc2ccccc23)nc1`, the IC50 was 142 µM (inactive).

`OCCNc1c2ccccc2nc2ccccc12` was tested, and the IC50 was 54.9 µM (inactive).

In the case of `Cc1ccc([C@H]2C[C@@H](O)[C@H](n3cc(-c4ccc(F)cc4)nn3)CN2C(=O)c2cccs2)cc1`, the IC50 is reported as 63 µM (inactive).

`Cc1ccc(Nc2c3c(nc4ncnn24)CCC3)cc1` was tested, and the IC50 was > 167 µM (inactive).

`Cc1cccc(N(C)c2ncnc3onc(-c4ccc(F)cc4)c23)c1C` was tested, and the IC50 was > 55.2 µM (inactive).

With `Cc1cc(C(=O)N2CCc3ccccc32)n(-c2ccccc2)n1` the IC50 was 175 µM (inactive).

For `Cc1c(NS(=O)(=O)c2ccc(NC3CCCC3)c([N+](=O)[O-])c2)c(=O)n(-c2ccccc2)n1C`, the IC50 was > 167 µM (inactive).

`CC(Oc1ccccc1)C(=O)N1CCN=C1SCc1ccccc1` (stereo not given) was tested, and the IC50 was 70.7 µM (inactive).

With `O=[N+]([O-])c1cccc(-c2noc(-c3ccco3)n2)c1` the IC50 was > 167 µM (inactive).

For `COc1ccc(-c2cc(C)no2)cc1S(=O)(=O)NCc1cccc(C)c1`, the IC50 was > 167 µM (inactive).

For `COc1ccc(C(=O)NC2CCCc3c2cnn3-c2cc(F)cc(F)c2)c(OC)c1OC` (stereo not given), the IC50 was 61.9 µM (inactive).

In the case of `Cc1ccc(CNC(=O)Cc2ccc(-c3ccccc3)cc2)cc1`, the IC50 is reported as > 167 µM (inactive).

`CCCC(=O)NC1=C(N2CC2)C(=O)C(NC(=O)CCC)=C(N2CC2)C1=O` was tested, and the IC50 was 23.5 µM (inactive).

For `Cc1nnc(SCc2ccc(Cl)cc2)nc1/C=C/N(C)C`, the IC50 was 81.3 µM (inactive).

With `CCOC(=O)Nc1nc(-c2ccccc2)c(C(=O)c2ccc(Cl)cc2)s1` the IC50 was > 55.2 µM (inactive).

With `COc1ccc([C@@H]2CC=C(C(=O)O)[C@H](c3ccccc3F)N2S(=O)(=O)c2ccccc2C)cc1` the IC50 was 66.3 µM (inactive).

With `c1cc2c(cc1C1=Nn3c(nnc3C3CCCCC3)SC1)OCO2` the IC50 was 47.1 µM (inactive).

In the case of `Cn1nccc1C(=O)N1CCc2ccccc21`, the IC50 is reported as > 167 µM (inactive).

With `COc1ccc(-c2noc(-c3cccs3)n2)cc1OC` the IC50 was > 167 µM (inactive).

For `Cn1ncc(Cl)c1C(=O)N1CCc2ccccc21`, the IC50 was > 167 µM (inactive).

In the case of `COc1ccc2cc3c(N)nn(C(=O)c4ccccc4[N+](=O)[O-])c3nc2c1`, the IC50 is reported as 34.8 µM (inactive).

`Cc1cc(C)n(CC(=O)n2c(C)c(C)c3ccccc32)n1` was tested, and the IC50 was > 167 µM (inactive).

For `Cn1c(O)c(/C=C2\N=c3ccccc3=C2CCNC(=S)NC2CC2)c(=O)n(C)c1=O`, the IC50 was 45 µM (inactive).

`Cn1cc(Br)c(C(=O)N2CCc3ccccc32)n1` was tested, and the IC50 was > 167 µM (inactive).

In the case of `COc1ccc2[nH]c3c(Cl)ncnc3c2c1`, the IC50 is reported as > 167 µM (inactive).

In the case of `CC(C)CNC(=O)CSc1nnc2ccccn12`, the IC50 is reported as > 167 µM (inactive).

In the case of `Cn1cc(C2CC(c3ccccc3)=NN2C(=O)c2ccccc2)c2ccccc21` (stereo not given), the IC50 is reported as > 167 µM (inactive).

For `Cc1ccc(/C=N/NC(=O)c2csc(C)c2)o1`, the IC50 was 116 µM (inactive).

For `Cc1nn(C)c(C(=O)N2CCc3ccccc32)c1Br`, the IC50 was > 167 µM (inactive).

For `[O-]/C(=C(\C(=S)Nc1ccc(SC(F)F)cc1)[n+]1ccccc1)c1cc(Cl)ccc1Cl`, the IC50 was > 167 µM (inactive).

For `C=CCn1c(=O)c2c(nc3n2CC(C)CN3Cc2ccccc2)n(C)c1=O` (stereo not given), the IC50 was 82.5 µM (inactive).

With `Cc1ccc(C2CC(c3ccccc3)=NN2C(=S)Nc2ccccc2)o1` (stereo not given) the IC50 was > 167 µM (inactive).

With `COc1cccc(-c2csc(NC(=O)C3CC3)n2)c1` the IC50 was 103 µM (inactive).

`CCn1ncc(/C=N\NC(=O)c2csc3ccccc23)c1C` was tested, and the IC50 was > 167 µM (inactive).

`CCCCn1c(O)c(C(=O)/C=C/c2ccc3c(c2)OCO3)c(=O)[nH]c1=O` was tested, and the IC50 was 90.9 µM (inactive).

For `CCOc1ccc(N=C2NC(=O)S/C2=C\c2ccc(O)cc2)cc1`, the IC50 was > 167 µM (inactive).

For `Cc1cnc(NC(=O)CCCc2nc3ccccc3s2)s1`, the IC50 was > 167 µM (inactive).

With `Cn1ncc(Br)c1C(=O)N1CCc2ccccc21` the IC50 was > 167 µM (inactive).

For `COc1ccc(CCNc2c3ccccc3nc3ccccc23)cc1OC`, the IC50 was 54.4 µM (inactive).

With `CN(Cc1ccccc1)C(=O)c1[nH]cnc1C(=O)NCC(=O)OC(C)(C)C` the IC50 was > 167 µM (inactive).

`CC1CN(Cc2ccccc2)c2nc3c(c(=O)n(CC(N)=O)c(=O)n3C)n2C1` (stereo not given) was tested, and the IC50 was > 167 µM (inactive).

`CN(C)CC(CCC(CN(C)C)C(O)(c1ccccc1)c1ccccc1)C(O)(c1ccccc1)c1ccccc1` (stereo not given) was tested, and the IC50 was 17.2 µM (inactive).

`Cc1c(C(=O)N2CCc3ccccc32)cnn1C` was tested, and the IC50 was > 167 µM (inactive).
